The results in this text go back to patent US20030008847A1, “Treatment of diabetes and related pathologies” (Medicure, Inc., priority 1999, published 2003).

Experiment [1] relates to rats induced with Type I diabetes. The experiment in a line: Type I diabetes in rats induced with streptozotocin; glucose and insulin levels. It counts as in vivo, Male Sprague-Dawley rats. To be noted: compared to diabetic group, Insulin 1 unit and 3 unit, P-5-P 25 mg/kg daily; for plasma glucose levels: FIG. 1; for plasma insulin levels: FIG. 2. On the procedure:
Male Sprague-Dawley (Charles River Laboratories, Montreal, Canada) rats weighing approximately 200 g are randomly separated into control and experimental groups. All experimental animals are given an intravenous injection of 0.1 M citrate buffered streptozotocin (pH 4.5) at a dosage of 65 mg/kg of body weight to induce diabetes mellitus. All control animals receive an intravenous injection of 0.1 M citrate buffer (pH 4.5) alone. One experimental group of rats also receives daily doses of pyridoxal-5′-phosphate (25 mg/kg body weight) (Aldrich Canada Ltd., Ontario, Canada). A second experimental group receives daily subcutanteous injections of Humulin® N (3 units per day) (insulin isophene, human biosynthetic; Eli Lilly and Co., Indianapolis, Ind.). A third experimental group receives both daily subcutaneous injections of Humulin® N (3 units per day) and a daily dose of pyridoxal-5′-phosphate (25 mg/kg body weight). […] […] All animals are fed rat chow and water ad libitum. Plasma glucose levels were done using the Infinity Glucose Reagent® (Sigma Diagnostics, St. Louis, Mo.).

Experiment [2] concerns rats induced with Type II diabetes. The experiment in a line: Type II diabetes in rats induced by sucrose feeding; plasma glucose, plasma insulin, systolic blood pressure. Type of experiment: in vivo, Male Sprague-Dawley rats. The following applies: P-5-P 25 mg/kg orally/day; for plasma glucose levels: FIG. 3; for plasma glucose levels / plasma insulin levels: compared to diabetic group, tolbutamide 40 and 20 mg/kg, 16 weeks; for plasma insulin levels: FIG. 4. On the procedure:
To determine the effect of a compound suitable for use in methods of the invention on glucose and insulin levels, as well as increases in systolic blood pressure, rats having type II diabetes are administered pyridoxal-5'-phosphate, either alone or in combination with sucrose and/or tolbutamide, and their systolic blood pressure, urine and blood glucose and insulin levels are determined. […] et al: Isr J Med Sci; 33:153-159. […] et al: Isr J Med Sci; 33:153-159, a high sucrose or fructose diet for a prolonged period is one technique used to induce Type II diabetes, specifically hypertension associated with hyperglycemia and hyperinsulinemia in animals. Male Sprague-Dawley (Charles River Laboratories, Montreal, Canada) rats weighing approximately 200 g are randomly separated into the following groups with each group having 5 amimals: a) The control group that was fed a normal diet and provided with drinking water b) The sucrose group that was fed 35% sucrose (35 gm sucrose/100 ml of drinking water/day) with an average intake of 150 ml/rat/day c) The sucrose+[…] group that was fed sucrose as stated in b above and 25 mg/kg orally/day of […] g) The sucrose+tolbutamide group that was fed sucrose as stated in b above and 20 mg/kg orally/day of tolbutamide. Total duration of the study was 16 weeks. Plasma insulin levels were measured using Rat Insulin RIA Kit (Linco Research Inc., St. Charles, Mo.). Plasma glucose levels were done using the Infinity Glucose Reagent® (Sigma Diagnostics, St. Louis, Mo.).

`Cc1ncc(COP(=O)(O)O)c(C=O)c1O` [Example P-5-P, pyridoxal-5′-phosphate]: in experiment [1], the plasma glucose levels entry is “significantly reduced” and the plasma insulin levels result was “significantly increased”. Moreover, in experiment [2], the plasma glucose levels entry is recorded as “significantly decreased” and the plasma insulin levels entry is “significantly decreased”. For the same compound, the “rise in systolic blood pressure” value in experiment [2] (FIG. 5, tail cuff, compared to diabetic and tolbutamide treatment groups) was “significantly decreased”.

As for `CCCCNC(=O)NS(=O)(=O)c1ccc(C)cc1` [tolbutamide, reference compound], in experiment [2], the plasma glucose levels result was “significantly decreased” and the plasma insulin levels result is “significantly decreased”.

Turning to “Insulin: Humulin® N (insulin isophene, human biosynthetic; Eli Lilly and Co.)”, in experiment [1], the plasma glucose levels entry was “significantly reduced” and the plasma insulin levels entry is “significantly increased”.
